# Measured values as given in paper PMC7997032, “Organic synthesis and anti-influenza A virus activity of cyclobakuchiols A, B, C, and D” (PLoS ONE, 2021).
# Values joined by “and” are separate entries in the source; they are usually repeats but may differ in a detail not shown here. Identical values can stand only once.
# Legend:
# A/PR/8/34 virus [1] = experiment: Immunofluorescence staining of viral NP in influenza A virus-infected MDCK cells; conditions: for NP/DAPI (%) ave: average of 9 wells
# Protocol: (§1) MDCK cells were seeded on a 96-well plate at 1 × 10^4 cells/well. […] Each mixture was added to the cells at 37°C in the presence of 5% CO2. […] After influenza A viral infection for 24 h, the cells were fixed with 4% paraformaldehyde in phosphate-buffered saline (PBS) for 30 min at 4°C and subsequently permeabilized by the addition of 0.3% Triton X-100 for 20 min at 25°C. A mouse primary antibody was used to detect the NP of A/PR/8/34 or A/WSN/33 viruses (FluA-NP 4F1; SouthernBiotech, AL, USA). Alexa Fluor488-conjugated goat anti-mouse IgG (H + L) antibody (Thermo Fisher Scientific) was used as the secondary antibody. Cell nuclei were then stained using diamidino-2-phenylindole (DAPI) (Thermo Fisher Scientific). Wells were photographed using a fluorescence microscope (BIOREVO BZ-X700; Keyence, Osaka, Japan). The proportion of influenza A NP-positive cells per DAPI-positive cells was calculated based on measurements recorded using BZ-X Analyzer software (Keyence).
# Nrf2 = Nrf2 reporter assay (dual luciferase system) in MDCK cells; type: cell-based, canine
# Protocol: An Nrf2 reporter assay based on the dual luciferase system was performed as previously described. The plasmid pNQO1-ARE (antioxidant response element)-Fluc, provided by Yamamoto M., expressed a Firefly luciferase gene driven by Nrf2 activation, while the plasmid pRL-TK-Rluc vector (Promega, CA, USA) expressed a Renilla luciferase gene driven by the herpes simplex viral thymidine kinase promoter as an internal control. MDCK cells were seeded in a 24-well plate at 1 × 10^5 cells/well and transfected with pNQO1-ARE-luc (0.25 μg) and pRL-TK-Rluc (0.25 μg). At 24 h post-transfection, the cells were treated with 12.5 μM cyclobakuchiols A–D in the infection medium at 37°C under 5% CO2. DMSO (0.125%) and 12.5 μM 1 were used as negative and positive controls, respectively. Total RNA was extracted from the MDCK cell lysates after 24 h of incubation. The levels of Firefly and Renilla luciferase mRNAs were analyzed by RT-qPCR and normalized to that of β-actin mRNA.
# A/PR/8/34 virus [2] = type: cell-based; conditions: 12.5 μM, 24h WB
# A/WSN/33 virus [3] = experiment: Influenza A viral growth assay (viral titer of culture media); type: cell-based, influenza A H1N1 virus; conditions: A/WSN/33 (WSN), 12.5uM, average of #1-3 exp (n=9)
# A/PR/8/34 virus [4] = experiment: as above; type: cell-based, influenza A H1N1 virus; parameters: viral titer of culture media, individual replicate / viral titer of culture media, ave: unit not given here; conditions: A/PR/8/34 (PR8), 12.5uM, average of #1-3 exp (n=9)
# [5] = test system: canine interferon-β (Ifn-β); experiment: RT-qPCR of Ifn-β mRNA in MDCK cells with or without A/PR/8/34 virus; type: cell-based; conditions: 12.5uM, relative to virus - DMSO; for MDCK IFN-b mRNA, ave: ave of #1-3 exp; for MDCK IFN-b mRNA, individual replicates: replicates 1-3 of #1, #2, #3 exp, listed as Cyclobakuchiol B
# A/PR/8/34 virus [6] = experiment: RT-qPCR of viral mRNAs (NP, NS1, PA, PB1, PB2, M2) in infected MDCK cells; type: cell-based, influenza A H1N1 virus
# A/WSN/33 virus [7] = experiment: Immunofluorescence staining of viral NP in influenza A virus-infected MDCK cells; conditions: WSN
# Protocol: as §1
# [8] = test system: NAD(P)H quinone oxidoreductase 1 (Nqo1); experiment: RT-qPCR of Nqo1 mRNA in MDCK cells with or without A/PR/8/34 virus; type: cell-based, canine; conditions: for NQO1 Canis lupus mRNA, ave / NQO1 Canis lupus mRNA, individual replicates: 12.5uM, MDCK, relative to virus - DMSO; for NQO1 Canis lupus mRNA, ave: ave of #1-3 exp; for NQO1 Canis lupus mRNA, individual replicates: replicates 1-3 of #1, #2, #3 exp, listed as Cyclobakuchiol B
# [9] = MDCK cells, PR8 virus, relative to DMSO (about 1), ave of #1-3 exp (9 values)
# [10] = MDCK cells, PR8 virus, relative to DMSO, replicates 1-3 of #1, #2, #3 exp, listed as Cyclobakuchiol B
smiles,measurement,setting,value
C=C[C@]1(C)CCC(C(=C)C)C(c2ccc(O)cc2)C1 (stereo in doubt) [cyclobakuchiol B],percentage of influenza A NP-positive cells relative to DMSO,"A/PR/8/34 virus [1]; A/PR/8/34, 3.1 μM, 24 h, Fig 4B",significantly reduced
same,NP/DAPI (%) ave,"A/PR/8/34 virus [1]; A/PR/8/34, 3.13 uM",5.089%
same,NP/DAPI (%) ave,"A/PR/8/34 virus [1]; A/PR/8/34, 6.25 uM",1.925%
same,NP/DAPI (%) ave,"A/PR/8/34 virus [1]; A/PR/8/34, 12.5 uM",1.075%
same,NP/DAPI (%) ave,"A/PR/8/34 virus [1]; A/PR/8/34, 25 uM",0.927%
same,IC50,"A/PR/8/34 virus [1]; Influenza A virus, PR/8, MDCK, read-out: half maximal (50%) inhibitory concentration (IC50)",2.4 ± 0.6 µM
same,Nrf2 activation (reporter assay) in contrast to DMSO,"Nrf2; 12.5 μM, 24 h, MDCK cells",induced
same,"pNQO1-ARE-Luc NRF2 reporter assay, ave","Nrf2; 12.5uM, relative to DMSO trans+, ave of #1-3 exp",1.319
same,"pNQO1-ARE-Luc NRF2 reporter assay, individual replicates","Nrf2; 12.5uM, relative to DMSO trans+, two values each of #1, #2, #3 exp, listed as Cyclobakuchiol B",1.305 and 0.9752 and 1.512 and 1.4747 and 1.32 and 1.325
same,NP/b-actin ave,A/PR/8/34 virus [2]; average of 3 experiments,0.58
same,NS1/b-actin ave,A/PR/8/34 virus [2]; average of 3 experiments,0.5288
same,"NP mean (western blot signal intensity, ImageJ)",A/PR/8/34 virus [2]; single experiment,62.433 and 67.763 and 96.513
same,NP/b-actin,A/PR/8/34 virus [2]; single experiment,0.7275 and 0.4304 and 0.582
same,NS1/b-actin,A/PR/8/34 virus [2]; single experiment,0.4321 and 0.5028 and 0.6516
same,"NS1 mean (western blot signal intensity, ImageJ)",A/PR/8/34 virus [2]; single experiment,72.927 and 75.866 and 57.321
same,"viral titer of culture media, ave",A/WSN/33 virus [3]; 12h,12633.3
same,"viral titer of culture media, ave",A/WSN/33 virus [3]; 24h,25455556
same,"viral titer of culture media, ave",A/WSN/33 virus [3]; 48h,275666667
same,"viral titer of culture media, ave",A/WSN/33 virus [3]; 72h,208055556
same,"viral titer of culture media, ave",A/PR/8/34 virus [4]; 12h,24444.4
same,"viral titer of culture media, ave",A/PR/8/34 virus [4]; 48h,41111.1
same,"viral titer of culture media, ave",A/PR/8/34 virus [4]; 72h,58888.9
same,"MDCK IFN-b mRNA, ave",[5]; virus +,5.577
same,"MDCK IFN-b mRNA, individual replicates",[5]; virus +,1.734 and 10.09 and 8.268 and 12.9454 and 4.2 and 4.194 and 4.358 and 1.919 and 2.486
same,"MDCK IFN-b mRNA, ave",[5]; virus -,2.313
same,"MDCK IFN-b mRNA, individual replicates",[5]; virus -,0.5929 and 0.6599 and 7.314 and 8.038 and 1.086 and 0.609 and 1.136 and 0.5738 and 0.8068
same,"PR8 NP gene expression qPCR, ave","A/PR/8/34 virus [6]; MDCK PR8, NP mRNA, relative (DMSO about 1), average of #1-3 exp (n=9)",0.03219
same,"PR8 NP gene expression qPCR, individual replicate","A/PR/8/34 virus [6]; MDCK PR8, NP mRNA, relative (DMSO about 1), replicates of #1-3 exp, listed as Cyclobakuchiol B",0.01121 and 0.02587 and 0.02406 and 0.03207 and 0.05973 and 0.04959 and 0.06567 and 0.01197 and 0.009584
same,"PR8 NS1 gene expression qPCR, ave","A/PR/8/34 virus [6]; MDCK PR8, NS1 mRNA, relative (DMSO about 1), average of #1-3 exp (n=9)",0.02013
same,"PR8 NS1 gene expression qPCR, individual replicate","A/PR/8/34 virus [6]; MDCK PR8, NS1 mRNA, relative (DMSO about 1), replicates of #1-3 exp, listed as Cyclobakuchiol B",0.008731 and 0.02017 and 0.01871 and 0.02102 and 0.03896 and 0.02064 and 0.02879 and 0.01388 and 0.01026
same,"PR8 PA gene expression qPCR, ave","A/PR/8/34 virus [6]; MDCK PR8, PA mRNA, relative (DMSO about 1), average of #1-3 exp (n=9)",0.02293
same,"PR8 PA gene expression qPCR, individual replicate","A/PR/8/34 virus [6]; MDCK PR8, PA mRNA, relative (DMSO about 1), replicates of #1-3 exp, listed as Cyclobakuchiol B",0.01293 and 0.01727 and 0.01489 and 0.01881 and 0.04016 and 0.03375 and 0.04497 and 0.01194 and 0.01167
same,"PR8 M2 gene expression qPCR, ave",A/PR/8/34 virus [6]; [9],0.0246
same,"PR8 PB1 gene expression qPCR, ave",A/PR/8/34 virus [6]; [9],0.01874
same,"PR8 PB2 gene expression qPCR, ave",A/PR/8/34 virus [6]; [9],0.02588
same,"PR8 M2 gene expression qPCR, individual replicates",A/PR/8/34 virus [6]; [10],0.01123 and 0.02732 and 0.01583 and 0.02218 and 0.04353 and 0.0372 and 0.04279 and 0.01139 and 0.009915
same,"PR8 PB1 gene expression qPCR, individual replicates",A/PR/8/34 virus [6]; [10],0.01046 and 0.01271 and 0.006702 and 0.01001 and 0.03897 and 0.03125 and 0.03696 and 0.01163 and 0.009984
same,"PR8 PB2 gene expression qPCR, individual replicates",A/PR/8/34 virus [6]; [10],0.01333 and 0.02659 and 0.01745 and 0.02138 and 0.03944 and 0.03441 and 0.05711 and 0.01315 and 0.01011
same,NP/DAPI (%) ave,"A/WSN/33 virus [7]; 3.13uM, ave of 9 values (3 exp)",30.5534%
same,NP/DAPI (%) ave,"A/WSN/33 virus [7]; 6.25uM, ave of 9 values (3 exp)",28.157%
same,NP/DAPI (%) ave,"A/WSN/33 virus [7]; 12.5uM, ave of 9 values (3 exp)",30.5618%
same,NP/DAPI (%) ave,"A/WSN/33 virus [7]; 25uM, ave of 9 values (3 exp)",32.0683%
same,NP/DAPI (%) ave,"A/WSN/33 virus [7]; ave summary, 3.13%",30.5534%
same,NP/DAPI (%) ave,"A/WSN/33 virus [7]; ave summary, 6.25%",28.157%
same,NP/DAPI (%) ave,"A/WSN/33 virus [7]; ave summary, 12.50%",30.5618%
same,NP/DAPI (%) ave,"A/WSN/33 virus [7]; ave summary, 25%",32.0683%
same,relative mRNA level of Nqo1 compared with 5-treated cells,[8],significantly higher
same,"NQO1 Canis lupus mRNA, ave",[8]; virus + (PR8),1.527
same,"NQO1 Canis lupus mRNA, individual replicates",[8]; virus + (PR8),1.793 and 1.729 and 1.393 and 1.933 and 1.0008 and 1.009 and 1.147 and 1.683 and 2.053
same,"NQO1 Canis lupus mRNA, ave",[8]; virus -,1.333
same,"NQO1 Canis lupus mRNA, individual replicates",[8]; virus -,1.179 and 1.391 and 1.475 and 1.419 and 1.382 and 1.189 and 1.372 and 1.36 and 1.235
same,relative mRNA level of Nqo1 compared with DMSO,"[8]; without A/PR/8/34 virus, 12.5 μM, 24 h",significantly upregulated
